In patent US8703805B2 (Exelixis Patent Company LLC, priority 2005, dated 2014):

System: LXRα and/or LXRβ
Experiment: LXR/LXRE co-transfection assay (luciferase reporter, CV-1 cells)
Format: cell-based, human
Conditions: IC50 or EC50 for LXR (LXRα and/or LXRβ, not distinguished), tested as described in Example 109, CV-1 cells
How it was run: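 Transient co-transfection of CV-1 cells with full-length human LXRα or LXRβ plus RXRα expression plasmids and an LXREx1-Tk-luciferase reporter; compounds (10 μM screen, ≤1% DMSO) incubated 20 h at 37 °C. Luminescence read after lysis; EC50/IC50 from 8-point half-log curves, efficacy relative to a high control or DMSO.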

For CCc1ccccc1-n1nc(C(C)(C)O)cc1-c1ccc(-c2cccc(S(C)(=O)=O)c2)s1 [Example 1329, 2-[1-(2-ethylphenyl)-5-{5-[3-(methylsulfonyl)phenyl]-2-thienyl}-1H-pyrazol-3-yl]propan-2-ol], the EC50 was under 1000 nM.
In the case of CCCc1ccccc1-n1nc(C(C)(C)O)cc1-c1ccc(-c2cccc(S(C)(=O)=O)c2)s1 [Example 1330, 2-[5-{5-[3-(methylsulfonyl)phenyl]-2-thienyl}-1-(2-propylphenyl)-1H-pyrazol-3-yl]propan-2-ol], the EC50 is reported as under 1000 nM.
With Cc1ccc(F)cc1-n1nc(C(C)(C)O)cc1-c1ccc(-c2cccc(S(C)(=O)=O)c2)s1 [Example 1331, 2-[1-(5-fluoro-2-methylphenyl)-5-{5-[3-(methylsulfonyl)phenyl]-2-thienyl}-1H-pyrazol-3-yl]propan-2-ol] the EC50 was under 1000 nM.
Compound CC(C)c1cccc(-c2ccc(-c3cc(C(C)(C)O)nn3-c3ccccc3Cl)s2)c1 [Example 1332, 2-[1-(2-chlorophenyl)-5-{5-[3-(1-methylethyl)phenyl]-2-thienyl}-1H-pyrazol-3-yl]propan-2-ol] has an EC50 of 1000 to 10000 nM.
For CC(C)(O)c1cc(-c2ccc(-c3cccc(S(C)(=O)=O)c3)s2)n(-c2cccc(C(F)(F)F)c2F)n1 [Example 1333, 2-(1-[2-fluoro-3-(trifluoromethyl)phenyl]-5-{5-[3-(methylsulfonyl)phenyl]-2-thienyl}-1H-pyrazol-3-yl)propan-2-ol], the EC50 was 1000 to 10000 nM.
In the case of CC(C)(O)c1cc(-c2ccc(-c3cccc(S(C)(=O)=O)c3)s2)n(-c2cc(F)ccc2Cl)n1 [Example 1334, 2-[1-(2-chloro-5-fluorophenyl)-5-{5-[3-(methylsulfonyl)phenyl]-2-thienyl}-1H-pyrazol-3-yl]propan-2-ol], the EC50 is reported as under 1000 nM.
Work on Cc1cccc(Cl)c1-n1nc(C(C)(C)O)cc1-c1ccc(-c2cccc(S(C)(=O)=O)c2)s1 [Example 1335, 2-[1-(2-chloro-6-methylphenyl)-5-{5-[3-(methylsulfonyl)phenyl]-2-thienyl}-1H-pyrazol-3-yl]propan-2-ol] yielded an EC50 of under 1000 nM.
In the case of CC(C)(O)c1cc(-c2ccc(-c3cccc(S(C)(=O)=O)c3)s2)n(-c2cc(Cl)ccc2F)n1 [Example 1336, 2-[1-(5-chloro-2-fluorophenyl)-5-{5-[3-(methylsulfonyl)phenyl]-2-thienyl}-1H-pyrazol-3-yl]propan-2-ol], the EC50 is reported as under 1000 nM.
C/C(=N\OCCN(C)C)c1cc(-c2ccc(-c3cccc(S(C)(=O)=O)c3)s2)n(-c2ccccc2Cl)n1 [Example 1337, (1E)-1-[1-(2-chlorophenyl)-5-{5-[3-(methylsulfonyl)phenyl]-2-thienyl}-1H-pyrazol-3-yl]ethanone O-[2-(dimethylamino)ethyl]oxime] was tested, and the EC50 was under 1000 nM.
For CC(C)(O)c1cc(-c2ccc(-c3cccc(S(C)(=O)=O)c3)s2)n(-c2cccc(C(F)(F)F)c2O)n1 [Example 1338, 2-[3-(1-hydroxy-1-methylethyl)-5-{5-[3-(methylsulfonyl)phenyl]-2-thienyl}-1H-pyrazol-1-yl]-6-(trifluoromethyl)phenol], the EC50 was 1000 to 10000 nM.
Work on Cc1c(Cl)cccc1-n1nc(C(C)(C)O)cc1-c1ccc(-c2cccc(S(C)(=O)=O)c2)s1 [Example 1340, 2-[1-(3-chloro-2-methylphenyl)-5-{5-[3-(methylsulfonyl)phenyl]-2-thienyl}-1H-pyrazol-3-yl]propan-2-ol] yielded an EC50 of under 1000 nM.
CC(C)(O)c1cc(-c2ccc(-c3cccc(S(C)(=O)=O)c3)s2)n(-c2c(Cl)cc(Cl)cc2C(F)(F)F)n1 [Example 1341, 2-(1-[2,4-dichloro-6-(trifluoromethyl)phenyl]-5-{5-[3-(methylsulfonyl)phenyl]-2-thienyl}-1H-pyrazol-3-yl)propan-2-ol] showed an EC50 of 1000 to 10000 nM.
CC(C)(O)c1cc(-c2ccc(-c3cccc(S(C)(=O)=O)c3)s2)n(-c2cccc3c2OC(F)(F)O3)n1 [Example 1342, 2-[1-(2,2-difluoro-1,3-benzodioxol-4-yl)-5-{5-[3-(methylsulfonyl)phenyl]-2-thienyl}-1H-pyrazol-3-yl]propan-2-ol] showed an EC50 of under 1000 nM.
In the case of CC(C)(O)c1cc(-c2ccc(-c3cccc(S(C)(=O)=O)c3)s2)n(-c2ccncc2)n1 [Example 1343, 2-(5-{5-[3-(methylsulfonyl)phenyl]-2-thienyl}-1-pyridin-4-yl-1H-pyrazol-3-yl)propan-2-ol], the EC50 is reported as 1000 to 10000 nM.
Compound CC(C)(O)c1cc(-c2ccc(-c3cccc(S(C)(=O)=O)c3)s2)n(-c2c(F)cccc2Cl)n1 [Example 1344, 2-[1-(2-chloro-6-fluorophenyl)-5-{5-[3-(methylsulfonyl)phenyl]-2-thienyl}-1H-pyrazol-3-yl]propan-2-ol] has an EC50 of under 1000 nM.
CC(C)c1ccccc1-n1nc(C(C)(C)O)cc1-c1ccc(-c2cccc(S(C)(=O)=O)c2)s1 [Example 1345, 2-(1-[2-(1-methylethyl)phenyl]-5-{5-[3-(methylsulfonyl)phenyl]-2-thienyl}-1H-pyrazol-3-yl)propan-2-ol] was tested, and the EC50 was under 1000 nM.
Compound CC(C)(O)c1cc(-c2ccc(-c3cccc(S(C)(=O)=O)c3)s2)n(-c2cccnc2)n1 [Example 1346, 2-(5-{5-[3-(methylsulfonyl)phenyl]-2-thienyl}-1-pyridin-3-yl-1H-pyrazol-3-yl)propan-2-ol] has an EC50 of under 1000 nM.
CC(C)(O)c1cc(-c2ccc(-c3cccc(S(C)(=O)=O)c3)s2)n(-c2cc(C(F)(F)F)ccc2Cl)n1 [Example 1347, 2-(1-[2-chloro-5-(trifluoromethyl)phenyl]-5-{5-[3-(methylsulfonyl)phenyl]-2-thienyl}-1H-pyrazol-3-yl)propan-2-ol] showed an EC50 of 1000 to 10000 nM.
Compound CC(C)(O)c1nn(-c2c(Cl)cccc2Cl)c(-c2ccc(-c3cccc(S(C)(=O)=O)c3)s2)c1Cl [Example 1348, 2-[4-chloro-1-(2,6-dichlorophenyl)-5-{5-[3-(methylsulfonyl)phenyl]-2-thienyl}-1H-pyrazol-3-yl]propan-2-ol] has an EC50 of under 1000 nM.
CC(C)(O)c1nn(-c2ccccc2C(F)(F)F)c(-c2ccc(-c3cccc(S(C)(=O)=O)c3)s2)c1Br [Example 1349, 2-(4-bromo-5-{5-[3-(methylsulfonyl)phenyl]-2-thienyl}-1-[2-(trifluoromethyl)phenyl]-1H-pyrazol-3-yl)propan-2-ol] gave an EC50 of under 1000 nM.
CC(C)(O)c1nn(-c2ccccc2C(F)(F)F)c(-c2ccc(-c3cccc(S(C)(=O)=O)c3)s2)c1Cl [Example 1350, 2-(4-chloro-5-{5-[3-(methylsulfonyl)phenyl]-2-thienyl}-1-[2-(trifluoromethyl)phenyl]-1H-pyrazol-3-yl)propan-2-ol] showed an EC50 of under 1000 nM.
In the case of CC(C)(O)c1cc(-c2ccc(-c3cccc(S(C)(=O)=O)c3)s2)n(-c2cnccc2C(F)(F)F)n1 [Example 1351, 2-(5-{5-[3-(methylsulfonyl)phenyl]-2-thienyl}-1-[4-(trifluoromethyl)pyridin-3-yl]-1H-pyrazol-3-yl)propan-2-ol], the EC50 is reported as 1000 to 10000 nM.
Work on Cc1cccc(C)c1-n1nc(C(C)(C)O)cc1-c1ccc(-c2cccc(S(C)(=O)=O)c2)s1 [Example 1352, 2-[1-(2,6-dimethylphenyl)-5-{5-[3-(methylsulfonyl)phenyl]-2-thienyl}-1H-pyrazol-3-yl]propan-2-ol] yielded an EC50 of under 1000 nM.
In the case of CC(C)(O)c1cc(-c2ccc(-c3cccc(S(C)(=O)=O)c3)s2)n(-c2c(F)cccc2C(F)(F)F)n1 [Example 1353, 2-(1-[2-fluoro-6-(trifluoromethyl)phenyl]-5-{5-[3-(methylsulfonyl)phenyl]-2-thienyl}-1H-pyrazol-3-yl)propan-2-ol], the EC50 is reported as under 1000 nM.
